In US20220193209A1, “COMPOSITIONS AND METHODS FOR REACTIVATING LATENT IMMUNODEFICIENCY VIRUS AND/OR TREATING IMMUNODEFICIENCY VIRUS INFECTION” (The J. David Gladstone institutes, a testamentary trust …, priority 2019, published 2022):

How the values were obtained:
K562 cells = assay: Cell viability of HIVGKO-infected K562 cells; type: cell-based; details: K562, increasing concentrations
Experimental: Briefly, K562 cells were treated with increasing concentrations of the FOXO1 inhibitor AS1842856 just after HIVGKO infection. After 3-4 days, the percentage of latent cells and productive cells were quantified by FACS. In left panel, amount of productive or latent cells relative to the total infection rate (bars) and cell viability (dots). In the right panel, ratios of productive versus latent populations upon increasing concentrations of AS1842856 treatments. Data are represented as mean f SD of triplicate values, representative of three independent experiments. FIG. 1, Panel B depicts FOXO1, FOXO3 and FOXO4 CETSA-melting curve shifts upon the presence or absence of AS1842856 1000 nM in K562 cells. Band intensities obtained from western blot analysis were related to the highest western blot signal which has been set to 100%. Relative FOXO-band intensities were plotted against corresponding incubation temperatures and a nonlinear least-squares regression fit was applied. Data represent the mean±SD of three individual experiments. FIG. 1, Panel C depicts the efficiency of FOXO1, FOXO3 and FOXO4 knockdowns with two different sgRNAs checked by western blot. Cells transduced with NC (negative control) sgRNA lentiviruses were used as a control. […]

[1] = test system: HIV latency establishment (HIVGKO) in primary CD4+ T cells; assay: HIVGKO latency establishment in primary resting CD4+ T cells; type: cell-based, HIV-1; details: increasing doses, 72 hours
[2] = test system: HIV-1 latency establishment (HIVGKO reporter virus) in K562 cells; assay: HIVGKO dual-color reporter latency establishment in K562 cells (FACS); type: cell-based
Text: While the effect of FOXO1 inhibitor treatment on productive infection has been tested (Trinite, B. et al. PLoS One 9, (2014)), its effect on latent HIV previously remained unknown. To test the potential of FOXO1 inhibition to affect HIV-1 latency, the new second-generation dual-color reporter virus HIVGKO (LTR-HIV-Δ-env-nefATG-csGFP-EF1α-mKO2) and the FOXO1 inhibitor AS1842856 were employed (FIG. 1, Panel A). In this system, latently-infected K562 cells express the mKO2 fluorophore, while cells containing a productive and active virus express both mKO2 and GFP fluorophores, the latter controlled by the HIV-1 LTR. […] Concomitantly, the proportion of actively infected cells increased. […] Thus, FOXO1 inhibition prevented HIV-1 latency establishment and increased the ratio between actively and latently infected cells.
Briefly, K562 cells were treated with increasing concentrations of the FOXO1 inhibitor AS1842856 just after HIVGKO infection. After 3-4 days, the percentage of latent cells and productive cells were quantified by FACS. In left panel, amount of productive or latent cells relative to the total infection rate (bars) and cell viability (dots). In the right panel, ratios of productive versus latent populations upon increasing concentrations of AS1842856 treatments. Data are represented as mean f SD of triplicate values, representative of three independent experiments. […]

FOXO3 = biological target: T1, FOXO3 (Homo sapiens, UniProt O43524); assay: Cellular Thermal Shift Assay (CETSA) in K562 cells, FOXO3; type: binding; details: 1 μM
T1 construct: performed against the FOXO isoforms expressed in K562 cells; endogenous in cells; host or cells: K562
T1 sequence (O43524 whole entry, canonical isoform): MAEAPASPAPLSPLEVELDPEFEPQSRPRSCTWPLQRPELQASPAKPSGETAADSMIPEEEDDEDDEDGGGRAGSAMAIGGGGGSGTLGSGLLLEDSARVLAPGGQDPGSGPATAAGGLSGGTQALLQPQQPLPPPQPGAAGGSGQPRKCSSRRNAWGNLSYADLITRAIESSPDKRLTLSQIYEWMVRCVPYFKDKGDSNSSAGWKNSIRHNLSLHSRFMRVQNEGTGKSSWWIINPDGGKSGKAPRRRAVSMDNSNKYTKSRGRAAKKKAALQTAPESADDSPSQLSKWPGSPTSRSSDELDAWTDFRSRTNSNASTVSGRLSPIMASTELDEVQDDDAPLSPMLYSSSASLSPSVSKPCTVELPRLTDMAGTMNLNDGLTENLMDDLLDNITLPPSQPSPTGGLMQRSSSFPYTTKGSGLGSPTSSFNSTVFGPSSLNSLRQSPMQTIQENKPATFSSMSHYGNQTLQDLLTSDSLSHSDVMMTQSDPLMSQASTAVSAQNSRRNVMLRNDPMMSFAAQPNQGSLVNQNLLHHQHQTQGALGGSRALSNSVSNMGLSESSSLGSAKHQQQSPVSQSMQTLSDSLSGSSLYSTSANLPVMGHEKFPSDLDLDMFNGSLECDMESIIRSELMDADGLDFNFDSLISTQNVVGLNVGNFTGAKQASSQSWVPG
Experimental: K562 cells (ATCC) were maintained in appropriate volume of RPMI medium supplemented with 10% fetal bovine serum (Serum Plus—II, Sigma MO, USA), 100 units/mL penicillin and 100 […] (Corning, VA, USA). Short-term passages (<15) were used for all experiments. For CETSA, K562 cell were freshly seeded the day before the experiment. The day of experiment, equal numbers of cells were counted by Moxi Mini automated cell counter (Orflo) and 0.6×10^6 cells per data point were seeded in T-25 cell culture flasks (VWR, PA, USA) in appropriate volume of culture medium. Cells were exposed to […] AS1842856 or equal volume DMSO for 3 hours in an incubator with 5% CO2 and 37° C. […] The supernatants were transferred to new microcentrifuge tubes and analyzed by SDS-PAGE followed by immunoblotting analysis. […] Immunoblotting results were subjected to densitometric analysis (Image J) and melting temperatures of FOXO1, FOXO3 and FOXO4 were determined by Prism 7 (GraphPad) using nonlinear least-squares regression fit to Y=100/(1+10^(Log IC50−X)*H), where H=Hill slope (variable). The viability of the cells was assessed in triplicate by trypan blue exclusion. […]
Briefly, K562 cells were treated with increasing concentrations of the FOXO1 inhibitor AS1842856 just after HIVGKO infection. After 3-4 days, the percentage of latent cells and productive cells were quantified by FACS. […]

CCn1cc(C(=O)O)c(=O)c2c(N)c(F)c(NC3CCCCC3)cc21 [AS1842856, 5-amino-7-(cyclohexylamino)-1-ethyl-6-fluoro-4-oxo-1,4-dihydro-quinoline-3-carboxylic acid]
viability (K562 cells): no significant changes | productive infection and establishment of latency [1]: promoted productive infection and decreased the establishment of latency | primary T-cell viability (primary CD4+ T cells): No changes | IC50 ([2]; Human immunodeficiency virus 1, K562, read-out: IC50 observed in the cell culture system): 60 nM | proportion of latently infected cells ([2]; K562, increasing concentrations): decreased | change in FOXO3 melting curve (FOXO3): no changes
